Patent US20250049806A1, “PHARMACEUTICAL COMPOSITION FOR PROVIDING TREATMENT FOR OR PREVENTING ALPORT SYNDROME” (UBE Corporation, priority 2021, published 2025)

assay: Transcellular transport test using Caco2 cell; assay type: in vitro ADME; details: human, Caco-2, apical-to-basolateral (A-to-B), pH=7.4, 10 µM compound
Experimental: Caco2 cells (purchased from ATCC) were cultured in DMEM medium (Thermo Fisher Scientific, Inc., 11965) containing 10% FBS (Thermo Fisher Scientific, Inc., 10082) and 1% penicillin/streptomycin/amphotericin B (Thermo Fisher Scientific, Inc., 15240). A transcellular transport test was carried out in accordance with MultiScreen Caco2 Drug Transport Assembly in a 96-well system (Application Note AN1727EN, MultiScreen Caco-2 Assay System, Merck) by partially modifying it. The Caco2 cells were inoculated at a cell density of 4×10^4 cells/well onto a micropore polycarbonate insert of a 96-well plate (Merck, Millcell-96 culture insert plate 0.4 μm pore size, well membrane area=0.11 cm^2, PSHT004S5) and cultured for 20 to 22 days, and the resulting monolayer was used in the transcellular transport test. The medium of the inoculated cells was replaced with a fresh one every 3 to 4 days.
Apical-to-basolateral (A-to-B) transport in the Caco2 cell monolayer membrane was performed by using HBSS (Thermo Fisher Scientific, Inc., 14025) medium (pH=7.4) containing 20 mM HEPES (Thermo Fisher Scientific, Inc., 15630), and adding HEPES-containing HBSS medium containing 10 µM compound (a 10 mM solution of the compound in DMSO was added at a 1000-fold dilution; final DMSO concentration: 0.1%) at 75 μL/well to the apical side and HEPES-containing HBSS medium supplemented with no compound at 250 μL/well to the basolateral side, followed by culture at 37° C. for 90 minutes. After culture, a 100 μL aliquot was collected from the basolateral side, and the concentration of a permeated compound was measured by LC-MS/MS under measurement conditions mentioned later. Papp (apparent permeability; cm/sec) was calculated from the determined concentration. Papp was determined according to the expression given below by calculating the slope (dA/dt; nmol/sec) of a straight line drawn between two points 0 minutes and zero amount of the compound in a graph plotted with an assay time (90 min) on the abscissa against the amount of the compound in the solution on the permeated side on the ordinate. As for an assay concentration, the concentration in the compound in the HEPES-containing HBSS medium containing the added compound was measured by UV-HPLC under measurement conditions mentioned later.
C0: assay concentration, S: plate membrane area=0.11 cm^2
• LC: LC20 or LC30 HPLC system manufactured by Shimadzu Corp. • Column: Phenomenex Kinetex C18 (50 mm×2.1 mm, 2.6 μm) • Column temperature: 40° C. • Flow rate: 0.3 mL/min • Mobile phase A: 0.1% aqueous formic acid solution • Mobile phase B: 0.1% formic acid, 50% acetonitrile/methanol mixed solution • Gradient: 0-2 min; A/B=90/10 to 10/90, 2-3 min; A/B=10/90, 3-3.01 min; A/B=10/90 to 90/10 • MS: Q-Trap3200 manufactured by AB Sciex Pte. Ltd. • Ionization: ESI • Mode: Positive
• LC: LC20 or LC30 HPLC system manufactured by Shimadzu Corp. • Column: Phenomenex Kinetex C18 (100 mm×2.1 mm, 2.6 μm) • Column temperature: 40° C. • Flow rate: 0.25 mL/min • Mobile phase A: 0.1% aqueous formic acid solution • Mobile phase B: 0.1% formic acid, 50% acetonitrile/methanol mixed solution • Gradient: 0-3 min; A/B=90/10, 3-11 min; A/B=90/10 to 5/95, 11-15 min; A/B=5/95, 15-15.1 min; A/B=5/95 to 90/10 • UV detector: photodiode array detector
A: Papp>1×10^−6 (cm/sec), B: 1×10^−6 (cm/sec)≥Papp>5×10^−7 (cm/sec), C: 5×10^−7 (cm/sec)≥Papp>1×10^−7 (cm/sec), or D: Papp≤1×10^−7 (cm/sec).

Structure (SMILES) | Papp A→B at 90 min, 10 µM [×10⁻⁶ cm/s]
Cc1cc(C)n(-c2cccc([C@H](CC(=O)O)NC(=O)CNC(=O)c3cc(NC4=NCC(F)CN4)c4cn[nH]c4c3)c2)n1 (stereo partly drawn) [44-(b), (3S)-3-(3-(3,5-dimethyl-1H-pyrazol-1-yl)phenyl)-3-(2-(4-((5-fluoro-1,4,5,6-tetrahydropyrimidin-2-yl)amino)-1H-indazole-6-carboxamido)acetamido)propanoic acid] | 0.5 to 1
O=C(O)C[C@H](NC(=O)CNC(=O)c1cc(NC2=NCC(F)CN2)c2cn[nH]c2c1)c1cc(Br)cc(C(F)(F)F)c1 (stereo partly drawn) [2-(b), (3S)-3-(3-bromo-5-(trifluoromethyl)phenyl)-3-(2-(4-((5-fluoro-1,4,5,6-tetrahydropyrimidin-2-yl)amino)-1H-indazole-6-carboxamido)acetamido)propanoic acid] | 0.5 to 1
O=C(O)C[C@H](NC(=O)CNC(=O)c1cc(NC2=NCC(F)CN2)c2cn[nH]c2c1)c1cc(OC(F)F)cc(C(F)(F)F)c1 (stereo partly drawn) [24-(b), (3S)-3-(3-(difluoromethoxy)-5-(trifluoromethyl)phenyl)-3-(2-(4-((5-fluoro-1,4,5,6-tetrahydropyrimidin-2-yl)amino)-1H-indazole-6-carboxamido)acetamido)propanoic acid] | 0.5 to 1
O=C(O)C[C@H](NC(=O)CNC(=O)c1cc(NC2=NCCCN2)c2cn[nH]c2c1)c1cc(Cl)cc(C(F)(F)F)c1 [51-(b), (S)-3-(3-chloro-5-(trifluoromethyl)phenyl)-3-(2-(4-((1,4,5,6-tetrahydropyrimidin-2-yl)amino)-1H-indazole-6-carboxamido)acetamido)propanoic acid] | > 1
O=C(O)C[C@H](NC(=O)CNC(=O)c1cc(NC2=NCC(F)CN2)cc2[nH]ncc12)c1cc(Cl)cc(C(F)(F)F)c1 (stereo partly drawn) [52-(b), (3S)-3-(3-chloro-5-(trifluoromethyl)phenyl)-3-(2-(6-((5-fluoro-1,4,5,6-tetrahydropyrimidin-2-yl)amino)-1H-indazole-4-carboxamido)acetamido)propanoic acid] | 0.1 to 0.5
COc1ccc([C@H](CC(=O)O)NC(=O)CNC(=O)c2cc(NC3=NCC(F)CN3)c3cn[nH]c3c2)cc1Br (stereo partly drawn) [16-(b), (3S)-3-(3-bromo-4-methoxyphenyl)-3-(2-(4-((5-fluoro-1,4,5,6-tetrahydropyrimidin-2-yl)amino)-1H-indazole-6-carboxamido)acetamido)propanoic acid] | > 1
O=C(O)C[C@H](NC(=O)CNC(=O)c1cc(NC2=NCC(F)CN2)c2cn[nH]c2c1)c1ccc(OC(F)F)cc1 (stereo partly drawn) [46-(b), (3S)-3-(4-(difluoromethoxy)phenyl)-3-(2-(4-((5-fluoro-1,4,5,6-tetrahydropyrimidin-2-yl)amino)-1H-indazole-6-carboxamido)acetamido)propanoic acid] | > 1
O=C(O)C[C@H](NC(=O)CNC(=O)c1cc(NC2=NCC(F)CN2)c2cn[nH]c2c1)c1cccc(OC2CC2)c1 (stereo partly drawn) [40-(b), (3S)-3-(3-cyclopropoxyphenyl)-3-(2-(4-((5-fluoro-1,4,5,6-tetrahydropyrimidin-2-yl)amino)-1H-indazole-6-carboxamido)acetamido)propanoic acid] | > 1
O=C(O)C[C@H](NC(=O)CNC(=O)c1cc(NC2=NCC(F)CN2)c2cn[nH]c2c1)c1cc(Br)cc(I)c1 (stereo partly drawn) [20-(b), (3S)-3-(3-bromo-5-iodophenyl)-3-(2-(4-((5-fluoro-1,4,5,6-tetrahydropyrimidin-2-yl)amino)-1H-indazole-6-carboxamido)acetamido)propanoic acid] | > 1
O=C(O)C[C@H](NC(=O)CNC(=O)c1cc(NC2=NCC(F)CN2)cc2[nH]ncc12)c1cc(I)cc(C(F)(F)F)c1 (stereo partly drawn) [54-(b), (3S)-3-(2-(6-((5-fluoro-1,4,5,6-tetrahydropyrimidin-2-yl)amino)-1H-indazole-4-carboxamido)acetamido)-3-(3-iodo-5-(trifluoromethyl)phenyl)propanoic acid] | 0.1 to 0.5
O=C(O)C[C@H](NC(=O)CNC(=O)c1cc(NC2=NCC(F)CN2)c2cn[nH]c2c1)c1cc(Cl)cc(OC(F)(F)F)c1 (stereo partly drawn) [31-(b), (3S)-3-(3-chloro-5-(trifluoromethoxy)phenyl)-3-(2-(4-((5-fluoro-1,4,5,6-tetrahydropyrimidin-2-yl)amino)-1H-indazole-6-carboxamido)acetamido)propanoic acid] | > 1
O=C(O)C[C@H](NC(=O)CNC(=O)c1cc(NC2=NCC(F)CN2)c2cn[nH]c2c1)c1cc(Br)ccc1F (stereo partly drawn) [23-(b), (3S)-3-(5-bromo-2-fluorophenyl)-3-(2-(4-((5-fluoro-1,4,5,6-tetrahydropyrimidin-2-yl)amino)-1H-indazole-6-carboxamido)acetamido)propanoic acid] | > 1
O=C(O)C[C@H](NC(=O)CNC(=O)c1cc(NC2=NCC(F)CN2)c2cn[nH]c2c1)c1cc(Cl)cc(C(F)(F)F)c1 (some centres unmarked) [1-(b)] | > 1
O=C(O)C[C@H](NC(=O)CNC(=O)c1cc(NC2=NCC(F)CN2)c2cn[nH]c2c1)c1cc(I)cc(C(F)(F)F)c1 (stereo partly drawn) [3-(b), (3S)-3-(2-(4-((5-fluoro-1,4,5,6-tetrahydropyrimidin-2-yl)amino)-1H-indazole-6-carboxamido)acetamido)-3-(3-iodo-5-(trifluoromethyl)phenyl)propanoic acid] | > 1
Cc1ccc([C@H](CC(=O)O)NC(=O)CNC(=O)c2cc(NC3=NCC(F)CN3)c3cn[nH]c3c2)cc1C(F)(F)F (stereo partly drawn) [14-(b), (3S)-3-(2-(4-((5-fluoro-1,4,5,6-tetrahydropyrimidin-2-yl)amino)-1H-indazole-6-carboxamido)acetamido)-3-(4-methyl-3-(trifluoromethyl)phenyl)propanoic acid] | > 1
O=C(O)C[C@H](NC(=O)CNC(=O)c1cc(NC2=NCC(F)CN2)c2cn[nH]c2c1)c1cccc(Cl)c1 (stereo partly drawn) [41-(b), (3S)-3-(3-chlorophenyl)-3-(2-(4-((5-fluoro-1,4,5,6-tetrahydropyrimidin-2-yl)amino)-1H-indazole-6-carboxamido)acetamido)propanoic acid] | > 1
O=C(O)C[C@H](NC(=O)CNC(=O)c1cc(NC2=NCC(F)CN2)c2cn[nH]c2c1)c1cccc(OC(F)(F)F)c1 (stereo partly drawn) [36-(b), (3S)-3-(2-(4-((5-fluoro-1,4,5,6-tetrahydropyrimidin-2-yl)amino)-1H-indazole-6-carboxamido)acetamido)-3-(3-(trifluoromethoxy)phenyl)propanoic acid] | > 1
O=C(O)C[C@H](NC(=O)CNC(=O)c1cc(NC2=NCC(F)CN2)c2cn[nH]c2c1)c1cccc(C(F)(F)F)c1F (stereo partly drawn) [9-(b), (3S)-3-(2-(4-((5-fluoro-1,4,5,6-tetrahydropyrimidin-2-yl)amino)-1H-indazole-6-carboxamido)acetamido)-3-(2-fluoro-3-(trifluoromethyl)phenyl)propanoic acid] | > 1
O=C(O)C[C@H](NC(=O)CNC(=O)c1cc(NC2=NCC(F)CN2)c2cn[nH]c2c1)c1ccc(F)c(OC(F)F)c1 (stereo partly drawn) [27-(b), (3S)-3-(3-(difluoromethoxy)-4-fluorophenyl)-3-(2-(4-((5-fluoro-1,4,5,6-tetrahydropyrimidin-2-yl)amino)-1H-indazole-6-carboxamido)acetamido)propanoic acid] | > 1
O=C(O)C[C@H](NC(=O)CNC(=O)c1cc(NC2=NCC(F)CN2)c2cn[nH]c2c1)c1cc(Cl)cc(Br)c1 (stereo partly drawn) [18-(b), (3S)-3-(3-bromo-5-chlorophenyl)-3-(2-(4-((5-fluoro-1,4,5,6-tetrahydropyrimidin-2-yl)amino)-1H-indazole-6-carboxamido)acetamido)propanoic acid] | > 1
